Experiments:
[1] = cited from earlier work
[2] = Solubility / miscibility in water and formulating agents; type: physicochemical

In the case of `COc1cc(C=O)ccc1O` [Vanillin], the solubility in water ([1]; according to the Merck index) is given as 1 gram in 100 ml water, the solubility in alcohol ([1]; compared with water, Merck index) is given as “more soluble” and the “solubility in polyethylene glycol” value ([2]; polyethylene glycol) is given as “considerably soluble”. The “solubility in tetra ethyl ortho silicate” value ([2]; tetra ethyl ortho silicate) was “considerably soluble”.

Reference: patent US20080311233A1, “Naturally Occurring Phenolic Substances Useful as Pesticides” (priority 2004, published 2008)
